Laboratory results reported in patent US7205320B2, “Phosphodiesterase 4 inhibitors” (Memory Pharmaceuticals Corp., priority 2001, dated 2007).

What was measured:
[1] = tested on: rats; assay: Passive avoidance in rats, in vivo test for learning and memory (MK-801 amnesia); parameters: species or system rat; conditions: MK-801 0.1 mg/kg pretreatment, 24 hours after shock, p<0.001
Protocol: Passive Avoidance in Rats, an In vivo Test for Learning and Memory
The test was performed as previously described (Zhang, H.-T., Crissman, A. M., Dorairaj, N. R., Chandler, L. J., and O'Donnell, J. M., Neuropsychopharmacology, 2000, 23, 198–204.). The apparatus (Model E10-16SC, Coulbourn Instruments, Allentown, Pa.) consisted of a two-compartment chamber with an illuminated compartment connected to a darkened compartment by a guillotine door. The floor of the darkened compartment consisted of stainless steel rods through which an electric foot-shock could be delivered from a constant current source. All experimental groups were first habituated to the apparatus the day before the start of the experiment. During the training, the rat (Male Spraque-Dawley (Harlan) weighing 250 to 350 g) was placed in the illuminated compartment facing away from the closed guillotine door for 1 minute before the door was raised. The latency for entering the darkened compartment was recorded. After the rat entered the darkened compartment, the door was closed and a 0.5 mA electric shock was administered for 3 seconds. […] The latency for entering the darkened compartment was recorded for up to 180 seconds, at which time the trial was terminated.
(§1) All data were analyzed by analyses of variance (ANOVA); individual comparisons were made using Kewman-Keuls tests. […]

[2] = tested on: rats; assay: Radial arm maze task in rats, in vivo test for learning and memory (MK-801 amnesia); parameters: species or system rat; conditions: MK-801 0.1 mg/kg, i.p., p<0.01
Protocol: Radial Arm Maze Task in Rats, an In vivo Test for Learning and Memory
The test was performed as previously described (Zhang, H.-T., Crissman, A. M., Dorairaj, N. R., Chandler, L. J., and O'Donnell, J. M., Neuropsychopharmacalogy, 2000, 23, 198–204.). Five days after initial housing, rats (male Spraque-Dawley (Harlan) weighing 250 to 350 g) were placed in the eight-arm radial maze (each arm was 60×10×12 cm high; the maze was elevated 70 cm above the floor) for acclimation for two days. Rats were then placed individually in the center of the maze for 5 minutes with food pellets placed close to the food wells, and then, the next day, in the wells at the end of the arms; 2 sessions a day were conducted. Next, four randomly selected arms were then baited with one pellet of food each. […] Four parameters were recorded: […]) working memory errors, i.e., entries into baited arms that had already been visited during the same trial; 2) reference memory errors, i.e., entries into unbaited arms; 3) total arm entries; and 4) the test duration (seconds), i.e., the time spent in the collection of all the pellets in the maze. […]
as §1

C[C@]12N[C@H](Cc3ccccc31)c1ccccc12 [MK-801]
Latency for entering the darkened compartment compared to the vehicle [1]: markedly reduced | Frequencies of working and reference memory errors compared to control [2]: increased
